Drawing on patent publication US10364323B2, “Method for producing polyether carbonate polyols” (priority 2015, dated 2019), this text covers pKa for 2 molecules.

Broadly, the pKa is the pH at which an ionisable group is half protonated.

The series is described as follows: physchem. The source says:
The pKa in the context of the process according to the invention is to be understood as meaning the negative decadic logarithm of the first dissociation constant of the carboxylic acid at a temperature of 25 degrees Celsius. […] The pKa of the carboxylic acid may be measured by determining the pH at the half-equivalence point. To this end, an aqueous solution of the carboxylic acid is titrated against sodium hydroxide solution of a defined concentration and in each case the pH of the solution is measured using a calibrated combination pH electrode. […] According to the Henderson-Hasselbalch equation at the half-equivalence point the pKa corresponds to the measured pH because the acid and its corresponding base are present in equal concentration. Carboxylic acids having an insufficient solubility in water are titrated in methanolic solution (pKLy=16.7) or ethanolic solution (pKLy=19.1), wherein pKLy is defined as follows for non-aqueous media.
[formula] […] Chem., 1985, Vol. 57, No. 6, pp. 865-876.

In the case of `O=C(O)CCCCCC(=O)O` [Pimelic acid], the pKa came out at 4.71.
As for `O=C(O)C(=O)O` [Oxalic acid], the pKa is 1.46.
